Experimental data: patent US20240360145A1, “PYRIMIDINE-2,4-DIAMINE DERIVATIVES AS WELL AS PREPARATION METHOD THEREFOR AND USE THEREOF” (LISEN THERAPEUTICS, INC., priority 2022, published 2024)

What was measured:
NCI-H146 cells = assay: Cell viability IC50 (CCK-8), small cell lung cancer cell line H146; assay type: cell-based; conditions: Homo sapiens, NCI-H146; H146, CCK-8
Protocol: (§1) Small cell lung cancer cell lines DMS114, NCI-H1688, NCI-H82, NCI-H146, and NCI-H446 cells were cultured in RPMI-1640 medium containing 10% fetal bovine serum and 1% penicillin-streptomycin. All the cells were cultured in a constant temperature incubator containing 5% CO2 at 37° C.
(§2) Small cell lung cancer is a highly heterogeneous malignant tumor, and its clinical treatment is mainly based on traditional chemotherapy (mainly platinum medicaments and etoposide). In order to study the anti-tumor activity of the compounds of the present disclosure in small cell lung cancer, the CCK-8 method was used to investigate the cell viability IC50 of compound 8 for five small cell lung cancer cell lines.

NCI-H82 cells = assay: Cell viability IC50 (CCK-8), small cell lung cancer cell line H82; assay type: cell-based; conditions: Homo sapiens, NCI-H82; H82, CCK-8
Protocol: as §1, §2

NCI-H1688 cells = assay: Cell viability IC50 (CCK-8), small cell lung cancer cell line H1688; assay type: cell-based; conditions: NCI-H1688; H1688, CCK-8
Protocol: as §1, §2

NCI-H446 cells = assay: Cell viability IC50 (CCK-8), small cell lung cancer cell line H446; assay type: cell-based; conditions: Homo sapiens, NCI-H446; H446, CCK-8
Protocol: as §1, §2

PE052 primary cells = assay: Cell viability IC50 (CCK-8), primary cells PE052 from small cell lung cancer pleural effusion; assay type: cell-based; conditions: PE052, CCK-8
Protocol: (§3) (1) The pleural effusion was poured into a 15 mL or 50 mL of sterilized centrifuge tube for centrifugation. Centrifugation conditions: 800 to 1000 rpm, 5 min.
(§4) (2) The precipitate was resuspended and washed for 2 to 3 times with PBS.
(§5) (3) The cell precipitate was resuspended with complete culture medium (α-MEM medium containing 10% fetal bovine serum and 2% penicillin-streptomycin), and the flocculent matter in the pleural effusion was removed using a sterilized cell sieve.
(§6) (4) The red blood cells in the pleural effusion were removed with lymphocyte separation fluid, and the tumor cells and lymphocyte components were collected. The number of tumor cells was observed under a microscope, and the cells were inoculated.
(§7) (5) After 24 hours, the supernatant was discarded, and fresh culture medium was added for further culture.
(§8) (6) The cell growth status was observed, and it was determined based on the cell status whether the medium was required to be continuously changed to remove blood cells. When the cells grew to a density of 80% to 90%, the cells were preserved.
(§9) (1) Primary cells from lung cancer pleural effusion within 5 generations were cultured to the logarithmic growth phase. […] After centrifugation at room temperature, the supernatant was discarded, and the cell precipitate was resuspended with fresh complete culture medium. After counting, the cells were placed at room temperature for later use. The cells were inoculated into a 384-well plate at a density of 2000 cells/well with a volume of 40 μl/well. The wells at the outermost circle of the plate were not inoculated with cells, and instead, added with sterile water to reduce evaporation of the culture medium.
(§10) (2) After overnight culture of the cells, the medium was discarded, and a fresh medium containing different concentrations of compounds was added at 200 μl/well. The dilution method of the compound was as follows: first the compound with the highest concentration of 10 μM was prepared, and then the compound was diluted for 3 times in sequence. […] At the same time, a blank control group was set up, in which only an equal volume of culture medium was added without adding cells. Five replicate wells were set up for each group. The cells were placed in the incubator for further culture.
(§11) (3) After 72 hours, 8 μl of CCK-8 solution, which was double-diluted with 10 mM PBS, was added to each well, and the cells were shaken and placed in an incubator at 37° C. for further culture for 2 hours.
(§12) (4) The light absorbance value at 450 nm was read using a microplate reader, and the IC50 was calculated according to the absorbance value. The calculation method was the same as above.
(§13) (1) Sample information: PE039, PE052, and PE062 were all primary cell samples from pleural effusion of patients with small cell lung cancer, and LT015 was a primary cell sample from bronchoscopic biopsy of a patient with small cell lung cancer.
(§14) (2) CCK-8 detection was used to detect the IC50 values of different medicaments (compounds).

PE062 primary cells = assay: Cell viability IC50 (CCK-8), primary cells PE062 from small cell lung cancer pleural effusion; assay type: cell-based; conditions: PE062, CCK-8
Protocol: as §3, §4, §5, §6, §7, §8, §9, §10, §11, §12, §13, §14

HT29 (colon cancer) = assay: Cell viability IC50 (CellTiter-Glo), HT29; assay type: cell-based; conditions: Homo sapiens, HT-29, HT29, 72 hours
Protocol: (§15) The cancer cell lines were cultured to the logarithmic growth phase according to conventional culture methods, and the cells were inoculated into a 384-well plate at a density of 2,000 cells/well in a volume of 40 μl/well. The concentrations of added compounds were: […], 1.67 μM, 0.56 μM, 0.19 μM, 0.062 μM, 0.021 μM, 0.0069 μM, 0.0023 μM, 0.00076 μM, and 0 μM. After 72 hours, cell viability was detected using the CellTiter-Glo™ Detection Kit.

ASH-3 (thyroid cancer) = assay: Cell viability IC50 (CellTiter-Glo), ASH-3; assay type: cell-based; conditions: ASH-3, 72 hours
Protocol: as §15

MCF-7 (breast cancer) = assay: Cell viability IC50 (CellTiter-Glo), MCF-7; assay type: cell-based; conditions: Homo sapiens, MCF7, MCF-7, 72 hours
Protocol: as §15

Hela (cervical cancer) = assay: Cell viability IC50 (CellTiter-Glo), Hela; assay type: cell-based; conditions: Homo sapiens, 72 hours
Protocol: as §15

RT-4 (bladder cancer) = assay: Cell viability IC50 (CellTiter-Glo), RT-4; assay type: cell-based; conditions: RT-4, 72 hours
Protocol: as §15

A375 (melanoma) = assay: Cell viability IC50 (CellTiter-Glo), A375; assay type: cell-based; conditions: Homo sapiens, A-375, A375, 72 hours
Protocol: as §15

PC-3 (prostate cancer) = assay: Cell viability IC50 (CellTiter-Glo), PC-3; assay type: cell-based; conditions: PC-3, 72 hours
Protocol: as §15

AGS (gastric cancer) = assay: Cell viability IC50 (CellTiter-Glo), AGS; assay type: cell-based; conditions: 72 hours
Protocol: as §15

[1] = system: various cancer cell lines; assay: Cell viability IC50 (CellTiter-Glo), summary over various cancer cell lines; assay type: cell-based
Protocol: as §15

NCI-H1975 cells = assay: Cell viability IC50 (MTT), Gefitinib-resistant NCI-H1975 cells; conditions: Homo sapiens, NCI-H1975, 72 h, read-out: cell viability IC50
Protocol: (§16) 1% sodium pyruvate was additionally added when culturing NCI-H1975 cells. All the cells were cultured in a constant temperature incubator containing 5% CO2 at 37° C.
(§17) (1) The cells were cultured to the logarithmic growth phase. […] After centrifugation at room temperature, the supernatant was discarded, and the cell precipitate was resuspended with fresh complete medium. After counting, the cells were placed at room temperature for later use.
(§18) (2) The cells were inoculated into a 96-well plate at a density of 4,000 cells/well with a volume of 100 μl/well. The wells at the outermost circle of the plate were not inoculated with cells, and instead, added with sterile water to reduce evaporation of the culture medium.
(§19) (3) After overnight culture of the cells, the medium was discarded, and a fresh medium containing different concentrations of compounds was added at 200 μl/well. The dilution method of the compound was as follows: first the compound with the highest concentration of 10 μM was prepared, and then the compound was diluted for 3 times in sequence. […] At the same time, a blank control group was set up, in which only an equal volume of culture medium was added without adding cells. Six replicate wells were set up for each group. The cells were placed in the incubator for further culture.
(§20) (4) After 72 hours, 20 μl of MTT solution (5 mg/ml) sterilized by filtration through a 0.22 m filter membrane was added to each well, and the cells were cultured in an incubator at 37° C. for another 4 hours.
(§21) (6) IC50 of the compounds for different cells was calculated based on the light absorption value of each group. Specifically, the absorbance value under treatment with different concentrations of compounds was first subtracted from the absorbance value of the blank well, and then the absorbance value of the 0 μM group was taken as 100% to calculate the cell survival rate after treatment with different concentrations of compounds. That is, survival rate=((ODexperimental well−ODblank control)/(ODnegative control−ODblank control))×100%. IC50 values were calculated based on the survival rate and concentration of the compound.

NCI-H1650 cells = assay: Cell viability IC50 (MTT), Gefitinib- and Osimertinib-resistant NCI-H1650 cells; conditions: Homo sapiens, NCI-H1650, 72 h, read-out: cell viability IC50
Protocol: as §16, §17, §18, §19, §20, §21

[2] = system: small cell lung cancer cell line H446 cells; assay: In vivo antitumor effect in mice bearing small cell lung cancer cell line H446 cells (CDX model)
Protocol: H446 cells in the logarithmic growth phase were suspended in PBS solution, and then inoculated subcutaneously in the right forelimb of nude mice. The cell density was about 2×10^8 cells/mL, and each mouse was inoculated with 0.1 mL of the cell suspension, for a total of 80 mice. When the subcutaneous tumor grew to range from 50 mm^3 to 100 mm^3, 40 tumor-bearing mice were randomly divided into groups and numbered, and drug administration began.
(1) Vehicle blank control group: 5% DMSO+20% PEG 300+75% saline (normal saline);
The cycle repeated twice, and no medication for the final 6 days.
All tumor-bearing mice were killed after 20 days.

CN1CC2CCC(C1)N2Cc1ccc(Nc2ncc(Cl)c(Nc3ccccc3S(=O)(=O)N(C)C)n2)cc1 [Compound 8, 2-((5-chloro-2-((4-((3-methyl-3,8-diazabicyclo[3.2.1]octan-8-yl)methyl)phenyl)amino)pyrimidin-4-yl)amino)-N,N-dimethylbenzenesulfonamide]
IC50 (NCI-H146 cells): 9.92 nM
IC50 (NCI-H82 cells): 5.15 nM
IC50 (NCI-H1688 cells): 5.01 nM
IC50 (NCI-H446 cells): 7.58 nM
IC50 (PE052 primary cells): 59.9 nM
IC50 (PE062 primary cells): 2.7 nM
IC50 (HT29 (colon cancer)): 190 nM
IC50 (ASH-3 (thyroid cancer)): 44 nM
IC50 (MCF-7 (breast cancer)): 52.8 nM
IC50 (Hela (cervical cancer)): 123 nM
IC50 (RT-4 (bladder cancer)): 54 nM
IC50 (A375 (melanoma)): 23.3 nM
IC50 (PC-3 (prostate cancer)): > 3000 nM
IC50 (AGS (gastric cancer)): 36.2 nM
IC50 ([1]; colon cancer, liver cancer, cervical cancer, ovarian cancer, and esophageal cancer): < 200 nM
IC50 ([1]; thyroid cancer, breast cancer, bladder cancer, glioma, pancreatic cancer, melanoma, and gastric cancer): < 100 nM
IC50 (NCI-H1975 cells): 55.2 nM
IC50 (NCI-H1650 cells): 83.6 nM
toxicity ([2]; H446 CDX nude mice, 15 mg/kg, judged from body weight): not significant
inhibitory effect on tumor volume growth compared with blank control (FIG. 1) ([2]; H446 CDX nude mice, intraperitoneal injection, 20 days): significantly inhibited the growth of tumor volume
animals survived ([2]; H446 CDX nude mice, intraperitoneal injection, 20 days, compound 8 and TP-0903 15 mg/kg once a day for 13 days, Cisplatin 2.5 mg/kg + Etoposide 4 mg/kg cycles): 11 out of 12
body weight changes of nude mice (FIG. 2) ([2]; during the drug administration period, recovered rapidly after drug withdrawal): slight decrease in body weight
